The values below come from the OligoGym collection.

Bases are written 5' to 3'; sugars and linkages follow in the same order, as letters with counts (s phosphorothioate, o phosphodiester; PS: all linkages phosphorothioate). The collection does not say whether C is 5-methylated. l = locked nucleic acid (LNA); d = 2'-deoxy (DNA)

The target of the series is Tau. In words: rat primary cortical neurons, FLIPR, 25 uM ASO.
For “CATCAATTTGGAAAGATGAA (sugars l3 d14 l3, PS)”, the calcium oscillation score was 62.5 % of control. As to “TTCTTAGAGGACTGCAACGC (sugars l3 d14 l3, PS)”, the calcium oscillation score was 23.9 % of control. Regarding “AAGACCAAGCAGAGATAAAC (sugars l3 d14 l3, PS)”, the calcium oscillation score was 16.7 % of control.

In the case of “TTCTTGTTCTAACCCCA (sugars l3 d12 l2, PS)”, the calcium oscillation score was 68.1 % of control.

As for AGCATCAGAGGTTTCA (sugars l3 d10 l3, PS), the calcium oscillation score was 0 % of control. For the sequence CAAACTTTTACTCTGAC (sugars l4 d9 l4, PS), the calcium oscillation score is 63.8 % of control.

On to “CATGATTAATTACACCC (sugars l3 d11 l3, PS)”, for which the calcium oscillation score is 35.5 % of control. As for “GTAGACTATTTGCACACTGC (sugars l3 d14 l3, PS)”, the calcium oscillation score was 11.1 % of control. As to “CTCCCATCACTAGCACT (sugars l1 d14 l2, PS)”, the calcium oscillation score was 38.3 % of control. On to CCTAATCCTGTGCTT (sugars l3 d9 l3, PS), for which the calcium oscillation score was 58.2 % of control. The same measure for TTTGTAGACTATTTGC (sugars l3 d10 l3, PS): 0 % of control. As for “ACTTTTGAACCCATTCC (sugars l2 d12 l3, PS)”, the calcium oscillation score was 83.6 % of control. In the case of “TTTATTTCCAAATTCACTTT (sugars ldlllddddddddddlldll, PS)” it was 83.1 % of control.

For the sequence TCCACCCTTACACATA (sugars l3 d11 l2, PS), the calcium oscillation score was 48.8 % of control. As for “TTCTAATTTAGTCACCA (sugars l3 d10 l4, PS)”, the calcium oscillation score was 65.9 % of control.

As to CTGCCGGTGGAGGAGA (sugars l3 d10 l3, PS), the calcium oscillation score is 0 % of control. On to “AAGTCCCGAGCCAAAGCCGA (sugars l3 d14 l3, PS)”, for which the calcium oscillation score was 0 % of control. As for “TTTATTTCCAAATTCACTTT (sugars l4 d11 l5, PS)”, the calcium oscillation score is 138 % of control. Regarding GCGGCGCAGGCGCGAG (sugars l3 d10 l3, PS), the calcium oscillation score was 73.6 % of control. In the case of CCATCCTATCTTCTAG (sugars l3 d10 l3, PS), the calcium oscillation score is 44.3 % of control.

As to CATGTCGATGCTGC (sugars l3 d8 l3, PS), the calcium oscillation score is 30.5 % of control. With “GGGTGATATTGTCCAGGGAC (sugars l3 d14 l3, PS)”, the calcium oscillation score is 0 % of control. In the case of “AGGTATCCAGCCATATTTCA (sugars l3 d14 l3, PS)”, the calcium oscillation score was 20.2 % of control. In the case of GAACTATTGATAAA (sugars l3 d8 l3, PS), the calcium oscillation score is 85.7 % of control. “TATCATTTTCTTTTTCAAAA (sugars l4 d12 l4, PS)”: the calcium oscillation score was 37.3 % of control. Regarding “CCTTTGTAATTCCTTCTC (sugars l3 d13 l2, PS)”, the calcium oscillation score is 53.4 % of control. For “GCACCAGGAACCTTCCAGAA (sugars l3 d14 l3, PS)”, the calcium oscillation score was 12.8 % of control.

Regarding “CCCGTCTTTGCTTTTACTGA (sugars l3 d14 l3, PS)”, the calcium oscillation score is 0 % of control. On to “TTCCCAAATTCCTCATAATC (sugars l3 d15 l2, PS)”, for which the calcium oscillation score is 69.1 % of control.

Consider ACCTCCTGGTTTATGA (sugars l3 d10 l3, PS), for which the calcium oscillation score was 32.2 % of control. Turning to “ATTGTCCAGGGACCCAATCT (sugars l3 d14 l3, PS)”, the calcium oscillation score is 50.9 % of control. In the case of TGAATAACATTAACCC (sugars l4 d8 l4, PS) it was 54 % of control; in that of TCCTGTGCTTCAGGCC (sugars l3 d10 l3, PS), 75.5 % of control; in that of “ATTTCCAAATTCACTTTTAC (sugars ldlllddddddddddlldll, PS)”, 143 % of control. The same measure for “AAGTGATTAACCAATTAACC (sugars l3 d14 l3, PS)”: 57 % of control; for “GAACTTCTAGTTATACAGTT (sugars l3 d14 l3, PS)”: 26.2 % of control; for ATCACTTCGAACTCCT (sugars l3 d10 l3, PS): 159 % of control. For the sequence TGGCGTTCTCGCGG (sugars l3 d8 l3, PS), the calcium oscillation score was 93.9 % of control.
